US8551999B2, “Heterocyclic compound and pharmaceutical composition thereof” (Otsuka Pharmaceutical Co., Ltd., priority 2007, dated 2013)

| melting point | Compound |
| --- | --- |
| 156.8 to 157.4 °C | CC(C)Oc1ccc(CN2CCN(C(=O)c3cc4ccc(Oc5ccc(N(C)C(=O)c6ccc(C(F)(F)F)cc6)cn5)cc4n3C)CC2)cn1.O=C(O)/C=C\C(=O)O [Example 444, N-(6-{2-[4-(6-Isopropoxypyridin-3-ylmethyl)piperazine-1-carbonyl]-1-methyl-1H-indol-6-yloxy}pyridin-3-yl)-N-methyl-4-tri-fluoromethylbenzamide maleate] |
| 237 to 239 °C | Br.CN(C(=O)c1ccc(C(F)(F)F)cc1)c1ccc(Oc2ccc3cc(C(=O)N4CCN(Cc5ccc(OC(F)(F)F)cc5)CC4)n(C)c3c2)nc1 [Example 446, N-Methyl-N-(6-{1-methyl-2-[4-(4-trifluoromethoxybenzyl)-piperazine-1-carbonyl]-1H-indol-6-yloxy}pyridin-3-yl)-4-tri-fluoromethylbenzamide hydrobromide] |
| 223.6 to 225.4 °C | Br.CN(C(=O)c1ccc(C(F)(F)F)cc1Cl)c1ccc(Oc2ccc3cc(C(=O)N4CCN(Cc5ccc(OCCF)cc5)CC4)n(C)c3c2)nc1 [Example 447, 2-Chloro-N-[6-(2-{4-[4-(2-fluoroethoxy)benzyl]piperazine-1-carbonyl}-1-methyl-1H-indol-6-yloxy)pyridin-3-yl]-N-methyl-4-tri-fluoromethylbenzamide hydrobromide] |
| 232.4 to 232.8 °C | Br.CN(C(=O)c1ccc(C(F)(F)F)cc1Cl)c1ccc(Oc2ccc3cc(C(=O)N4CCN(Cc5ccc(OCC(F)F)cc5)CC4)n(C)c3c2)nc1 [Example 448, 2-Chloro-N-[6-(2-{4-[4-(2,2-difluoroethoxy)benzyl]piperazine-1-carbonyl}-1-methyl-1H-indol-6-yloxy)pyridin-3-yl]-N-methyl-4-tri-fluoromethylbenzamide hydrobromide] |
| 239.5 to 240.6 °C | Br.CN(C(=O)c1ccc(C(F)(F)F)cc1Cl)c1ccc(Oc2ccc3cc(C(=O)N4CCN(Cc5ccc(OCC(F)(F)F)cc5)CC4)n(C)c3c2)nc1 [Example 449, 2-Chloro-N-methyl-N-[6-(1-methyl-2-{4-[4-(2,2,2-trifluoroethoxy)-benzyl]piperazine-1-carbonyl}-1H-indol-6-yloxy)pyridin-3-yl]-4-trifluoromethylbenzamide hydrobromide] |
| 238.6 to 240.1 °C | Br.CCCOc1ccc(CN2CCN(C(=O)c3cc4ccc(Oc5ccc(N(C)C(=O)c6ccc(C(F)(F)F)cc6Cl)cn5)cc4n3C)CC2)cc1 [Example 450, 2-Chloro-N-methyl-N-(6-{1-methyl-2-[4-(4-propoxybenzyl)-piperazine-1-carbonyl]-1H-indol-6-yloxy}pyridin-3-yl)-4-tri-fluoromethylbenzamide hydrobromide] |
| 248.3 to 252.3 °C | Br.CC(C)Oc1ccc(CN2CCN(C(=O)c3cc4ccc(Oc5ccc(N(C)C(=O)c6ccc(C(F)(F)F)cc6Cl)cn5)cc4n3C)CC2)cc1 [Example 451, 2-Chloro-N-(6-{2-[4-(4-isopropoxybenzyl)piperazine-1-carbonyl]-1-methyl-1H-indol-6-yloxy}pyridin-3-yl)-N-methyl-4-trifluoromethyl-benzamide hydrobromide] |
| 264 to 265.6 °C | Br.Cn1c(C(=O)N2CCN(Cc3ccc4c(c3)OCO4)CC2)cc2ccc(Oc3ccc(NC(=O)c4ccc(C(F)(F)F)cc4)cn3)cc21 [Example 454, N-{6-[2-(4-Benzo[1,3]dioxol-5-ylmethylpiperazine-1-carbonyl)-1-methyl-1H-indol-6-yloxy]pyridin-3-yl}-4-trifluoromethylbenzamide hydrobromide] |
| 227.4 to 229.2 °C | Br.CN(C(=O)c1ccc(OC(F)(F)F)cc1)c1ccc(Oc2ccc3cc(C(=O)N4CCN(Cc5ccc(OCC(F)(F)F)cc5)CC4)n(C)c3c2)nc1 [Example 456, N-Methyl-N-[6-(1-methyl-2-{4-[4-(2,2,2-trifluoroethoxy)benzyl]-piperazine-1-carbonyl}-1H-indol-6-yloxy)pyridin-3-yl]-4-tri-fluoromethoxybenzamide hydrobromide] |
| 241.4 to 242.7 °C | Br.Cn1c(C(=O)N2CCN(Cc3ccc(O)cc3)CC2)cc2ccc(Oc3ccc(NC(=O)c4ccc(C(F)(F)F)cc4)cn3)cc21 [Example 459, N-(6-{2-[4-(4-Hydroxybenzyl)piperazine-1-carbonyl]-1-methyl-1H-indol-6-yloxy}pyridin-3-yl)-4-trifluoromethylbenzamide hydrobromide] |
| 236.8 to 243.8 °C | Br.CC(C)Oc1ccc(CN2CCN(C(=O)c3cc4cc(Oc5ccc(NC(=O)c6ccc(C(F)(F)F)cc6)cn5)ccc4n3C)CC2)cc1 [Example 460, N-(6-{2-[4-(4-Isopropoxybenzyl)piperazine-1-carbonyl]-1-methyl-1H-indol-5-yloxy}pyridin-3-yl)-4-trifluoromethylbenzamide hydrobromide] |
| 229.1 to 230.8 °C | Br.Cn1c(C(=O)N2CCN(Cc3ccc(OCC(F)F)cc3)CC2)cc2cc(Oc3ccc(NC(=O)c4ccc(C(F)(F)F)cc4)cn3)ccc21 [Example 462, N-[6-(2-{4-[4-(2,2-Difluoroethoxy)benzyl]piperazine-1-carbonyl}-1-methyl-1H-indol-5-yloxy)pyridin-3-yl]-4-trifluoromethyl-benzamide hydrobromide] |
| 236.8 to 237.5 °C | Br.Cn1c(C(=O)N2CCN(Cc3ccc(OCC(F)(F)F)cc3)CC2)cc2cc(Oc3ccc(NC(=O)c4ccc(C(F)(F)F)cc4)cn3)ccc21 [Example 463, N-[6-(1-Methyl-2-{4-[4-(2,2,2-trifluoroethoxy)benzyl]piperazine-1-carbonyl}-1H-indol-5-yloxy)pyridin-3-yl]-4-trifluoromethyl-benzamide hydrobromide] |
| 232.4 to 234.2 °C | Br.Cn1c(C(=O)N2CCN(Cc3ccc(OCCF)cc3)CC2)cc2ccc(Oc3ccc(NC(=O)c4ccc(Cl)c(Cl)c4)cn3)cc21 [Example 464, 3,4-Dichloro-N-[6-(2-{4-[4-(2-fluoroethoxy)benzyl]piperazine-1-carbonyl}-1-methyl-1H-indol-6-yloxy)pyridin-3-yl]benzamide hydrobromide] |
| 251.8 to 253.5 °C | Br.Cn1c(C(=O)N2CCN(Cc3ccc(OCC(F)(F)F)cc3)CC2)cc2ccc(Oc3ccc(NC(=O)c4ccc(Cl)c(Cl)c4)cn3)cc21 [Example 465, 3,4-Dichloro-N-[6-(1-methyl-2-{4-[4-(2,2,2-trifluoroethoxy)-benzyl]piperazine-1-carbonyl}-1H-indol-6-yloxy)pyridin-3-yl]-benzamide hydrobromide] |
| 236.9 to 240.4 °C | Br.CC(C)Oc1ccc(CN2CCN(C(=O)c3cc4ccc(Oc5ccc(NC(=O)c6ccc(Cl)c(Cl)c6)cn5)cc4n3C)CC2)cn1 [Example 466, 3,4-Dichloro-N-(6-{2-[4-(6-isopropoxypyridin-3-ylmethyl)-piperazine-1-carbonyl]-1-methyl-1H-indol-6-yloxy}pyridin-3-yl)-benzamide hydrobromide] |
| 253 to 254.8 °C | Br.Cn1c(C(=O)N2CCN(Cc3ccc4c(c3)OC(F)(F)O4)CC2)cc2ccc(Oc3ccc(NC(=O)c4ccc(Cl)c(Cl)c4)cn3)cc21 [Example 467, 3,4-Dichloro-N-(6-{2-[4-(2,2-difluorobenzo[1,3]dioxol-5-yl-methyl)piperazine-1-carbonyl]-1-methyl-1H-indol-6-yloxy}pyridin-3-yl)benzamide hydrobromide] |
| 242.8 to 243.9 °C | Br.Cn1c(C(=O)N2CCN(Cc3ccc(OC(CF)CF)cc3)CC2)cc2ccc(Oc3ccc(NC(=O)c4ccc(Cl)c(Cl)c4)cn3)cc21 [Example 470, 3,4-Dichloro-N-[6-(2-{4-[4-(2-fluoro-1-fluoromethylethoxy)-benzyl]piperazine-1-carbonyl}-1-methyl-1H-indol-6-yloxy)pyridin-3-yl]benzamide hydrobromide] |
| 240 to 242 °C | Br.CCCOc1ccc(CN2CCN(C(=O)c3cc4ccc(Oc5ccc(N(C)C(=O)c6ccc(OC(F)(F)F)cc6)cn5)cc4n3C)CC2)cc1 [Example 471, N-Methyl-N-(6-{1-methyl-2-[4-(4-propoxybenzyl)piperazine-1-carbonyl]-1H-indol-6-yloxy}pyridin-3-yl)-4-trifluoromethoxy-benzamide hydrobromide] |
| 237.2 to 238.5 °C | Br.CC(C)Oc1ccc(CN2CCN(C(=O)c3cc4ccc(Oc5ccc(N(C)C(=O)c6ccc(OC(F)(F)F)cc6)cn5)cc4n3C)CC2)cc1 [Example 472, N-(6-{2-[4-(4-Isopropoxybenzyl)piperazine-1-carbonyl]-1-methyl-1H-indol-6-yloxy}pyridin-3-yl)-N-methyl-4-trifluoromethoxy-benzamide hydrobromide] |
| 269 to 270.3 °C | Br.Cn1c(C(=O)N2CCN(Cc3ccc(OCC(F)(F)F)cc3)CC2)cc2ccc(Oc3ccc(NC(=O)c4ccc(C(F)(F)F)cc4)cn3)cc21 [Example 474, N-[6-(1-Methyl-2-{4-[4-(2,2,2-trifluoroethoxy)benzyl]piperazine-1-carbonyl}-1H-indol-6-yloxy)pyridin-3-yl]-4-trifluoromethyl-benzamide hydrobromide] |
| 254 to 255.7 °C | Br.CCCOc1ccc(CN2CCN(C(=O)c3cc4ccc(Oc5ccc(NC(=O)c6ccc(C(F)(F)F)cc6)cn5)cc4n3C)CC2)cc1 [Example 475, N-(6-{1-Methyl-2-[4-(4-propoxybenzyl)piperazine-1-carbonyl]-1H-indol-6-yloxy}pyridin-3-yl)-4-trifluoromethylbenzamide hydrobromide] |
| 258.7 to 259.6 °C | Br.CC(C)Oc1ccc(CN2CCN(C(=O)c3cc4ccc(Oc5ccc(NC(=O)c6ccc(C(F)(F)F)cc6)cn5)cc4n3C)CC2)cc1 [Example 476, N-(6-{2-[4-(4-Isopropoxybenzyl)piperazine-1-carbonyl]-1-methyl-1H-indol-6-yloxy}pyridin-3-yl)-4-trifluoromethylbenzamide hydrobromide] |
| 265.6 to 268.3 °C | Br.Cn1c(C(=O)N2CCN(Cc3ccc(OC(F)F)cc3)CC2)cc2ccc(Oc3ccc(NC(=O)c4ccc(C(F)(F)F)cc4)cn3)cc21 [Example 477, N-(6-{2-[4-(4-Difluoromethoxybenzyl)piperazine-1-carbonyl]-1-methyl-1H-indol-6-yloxy}pyridin-3-yl)-4-trifluoromethylbenzamide hydrobromide] |
